Laboratory results from patent US20030104089A1, “Minari extract for preventing the induction and metastasis of cancer by carcinogens contained in cigarette smoke, fermented foods or alcoholic drinks” (priority 2000, published 2003).

Tests used:
[1] = test system: PCNA (proliferative cell nuclear antigen); assay: PCNA expression in lung tissue of NNK-treated A/J mice; assay type: in vivo; conditions: single i.p. NNK 4 mg, normal feed, 4 months, compared to water-only-receiving group
Experimental: The NNK group received a single administration of 4 mg of NNK. The group receiving NNK-Minari received a single administration of NNK and thereafter a feed to which Minari extract was added at a 1.25% (w/w) concentration. The other group received a normal feed. All the groups were allowed take, ad lib., their feeds for 4 months.
A/J mice were divided into three experimental groups: a single intraperitoneal water administration-receiving (+normal feed) group; a single intraperitoneal NNK (4 mg) administration-receiving (+normal feed) group; and a single intraperitoneal NNK administration-receiving (+feed to which Minari extract is added at a concentration of 1.25%) group. Four months later, the expression level of PCNA in each experimental group was measured.

[2] = humans, calculated; cited from earlier work

| Structure (SMILES) | expression level of PCNA [1] | virtually safe dose (VSD) for liver cancer [2] | virtually safe dose (VSD) for lung cancer [2] |
| --- | --- | --- | --- |
| CN(CCCC(=O)c1cccnc1)N=O [NNK, {(4-N-methyl-N-nitrosoamino)-1-(3-pyridyl)-1-butanone}] | significantly increased | – | – |
| CCOC(N)=O [urethane, ethylcarbamate] | – | 7.2×10^−5 mg/kg body weight | 1.8×10^−4 mg/kg body weight |
